Results published in PMC4992173, “Divergent synthesis and identification of the cellular targets of deoxyelephantopins” (Nature Communications, 2016).

Biological target: T1, PPARγ (Homo sapiens, UniProt P37231)
T1 sequence (P37231 1-505): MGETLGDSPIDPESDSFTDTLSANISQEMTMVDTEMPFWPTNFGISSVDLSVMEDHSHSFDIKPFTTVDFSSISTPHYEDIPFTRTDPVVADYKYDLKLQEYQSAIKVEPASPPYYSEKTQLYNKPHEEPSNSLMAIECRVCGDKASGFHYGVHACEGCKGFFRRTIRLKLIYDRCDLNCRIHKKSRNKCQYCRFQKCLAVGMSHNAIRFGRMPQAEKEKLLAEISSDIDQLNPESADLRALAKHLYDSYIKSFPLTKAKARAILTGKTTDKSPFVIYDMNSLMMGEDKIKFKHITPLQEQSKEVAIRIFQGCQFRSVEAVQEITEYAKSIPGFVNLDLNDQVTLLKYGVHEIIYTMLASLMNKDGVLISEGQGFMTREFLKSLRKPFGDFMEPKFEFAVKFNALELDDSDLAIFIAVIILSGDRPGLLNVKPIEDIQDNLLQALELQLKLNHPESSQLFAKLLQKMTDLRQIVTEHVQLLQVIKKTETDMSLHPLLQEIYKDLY
Assay: PPARγ enrichment from MCF7 lysates spiked with recombinant PPARγ (LC-MS/MS LFQ)
Type: binding
Details: for LFQ intensity (PPARG enriched by probe): MCF7 lysates spiked with recombinant PPARγ (30 nM), n=3
Method: On the basis of the reported interaction between deoxyelephantopin and PPARγ and because MCF7 cells are known to express very low levels of this protein, we investigated in a separate experiment whether deoxyelephantopin indeed covalently binds PPARγ. The recombinant transcription factor was spiked into MCF7 lysates to 30 nM final concentration and successfully enriched by the methacrylate ester probe 24c, as evidenced from LC–MS/MS-based label-free quantification (LFQ)[48]. […] To investigate whether DEP is also capable of binding to endogenous PPARγ directly in living cells, we performed a targeted competitive proteomics experiment in Caco-2, a colon cancer cell line known to express larger amounts of PPARγ[49]. The cells were treated in situ with dimethyl sulfoxide (DMSO) or 20 μM deoxyelephantopin, lysed and treated with 24c. Gratifyingly, endogenous PPARγ was successfully enriched and quantified from the DMSO-treated Caco-2 cells, whereas DEP pretreatment efficiently competed PPARγ enrichment (>95%; Fig. 7a). In yet another control experiment, we expressed hPPARγ in HeLa cells and successfully conducted a gel-based competition experiment once again using DEP as an in situ competitor and 24c-Cy3 as reporter probe (Supplementary Fig. 14).
Supplementary figure 13: LFQ quantification of PPARγ enrichment from supplemented MCF7 lysates using 10 µM of 23c or 24c as enrichment probes (n = 3). […]
was processed with MaxQuant (see below).
In situ global proteomics profiling using LC-MS/MS. Caco- ’ cells/mL) in a 6-well plate, allowed to grow to confluence and to differentiate for 28 days. The wells were washed one time with PBS and treated with either DMSO, 10 µM rosiglitazone, 50 µM T0070907 or 20 µM DEP for 24 hours. Cells were washed two times with PBS and lysates were prepared. Samples (30 µg) were denatured with 6 M urea in 50 mM NH4HCO3, reduced […]
dark. Samples were diluted to 2 M urea with 50 mM NH4HCO3, and digested with trypsin ([…] for 12 hours at 37 °C. Samples were acidified to a final concentration of 5% acetic acid, desalted over a self-packed C18 spin column and dried. Samples were analyzed by LC-MS/MS (see below) and the MS data was processed with […]
ARγ nrichment for mass spectrometry. MCF7 lysate (2 mg/ml, 0.5 mL) supplemented µ γ was treated with either 23c or 24c (10 µM, 50x stock in DMSO) for one hour at r.t., followed by click chemistry (see above). […] Samples were analyzed by LC-MS/MS (see below) and the MS data was processed with MaxQuant (see below).
LC-MS/MS analysis. Peptides were resuspended in water with 0.1% formic acid (FA) and analyzed using Proxeon EASY-nLC 1000 nano-UHPLC coupled to QExactive Plus Quadrupole-Orbitrap mass spectrometer (Thermo Scientific). […]

| Compound | Ratio 24c/23c (LFQ intensity of PPARG) (MCF7 lysates spiked with PPARγ, 10 µM probes) | LFQ intensity (PPARG enriched by probe) (10 µM probe) | PPARγ enrichment compared with probe 24c (MCF7 lysates spiked with PPARγ, 10 µM probe) |
| --- | --- | --- | --- |
| C#CCC[C@H](OC(=O)C(=C)C)[C@H]1C(=C)C(=O)O[C@@H]1c1ccccc1 [24c] | 0.94 | 5.15E+09 |  |
| C#CCC[C@H](O)[C@H]1C(=C)C(=O)O[C@@H]1c1ccccc1 [23c] |  | 5.49E+09 | comparable LFQ value |
